The values that follow come from ChEMBL document CHEMBL1141710 (Bioorg Med Chem Lett, 2008).

SMILES strings stand for the structures.

One assay deals with Acetylcholinesterase (Homo sapiens, UniProt P22303).
The target in the next assay is Cholinesterase (Homo sapiens, UniProt P06276).
The target in assay [1] is Cholinesterases; ACHE & BCHE (Homo sapiens) (UniProt P06276+P22303). Description: Selectivity ratio of Ki for human recombinant AChE to Ki for human recombinant BChE.
Sequence of Cholinesterases; ACHE & BCHE (Homo sapiens) (P06276 whole entry, looked up): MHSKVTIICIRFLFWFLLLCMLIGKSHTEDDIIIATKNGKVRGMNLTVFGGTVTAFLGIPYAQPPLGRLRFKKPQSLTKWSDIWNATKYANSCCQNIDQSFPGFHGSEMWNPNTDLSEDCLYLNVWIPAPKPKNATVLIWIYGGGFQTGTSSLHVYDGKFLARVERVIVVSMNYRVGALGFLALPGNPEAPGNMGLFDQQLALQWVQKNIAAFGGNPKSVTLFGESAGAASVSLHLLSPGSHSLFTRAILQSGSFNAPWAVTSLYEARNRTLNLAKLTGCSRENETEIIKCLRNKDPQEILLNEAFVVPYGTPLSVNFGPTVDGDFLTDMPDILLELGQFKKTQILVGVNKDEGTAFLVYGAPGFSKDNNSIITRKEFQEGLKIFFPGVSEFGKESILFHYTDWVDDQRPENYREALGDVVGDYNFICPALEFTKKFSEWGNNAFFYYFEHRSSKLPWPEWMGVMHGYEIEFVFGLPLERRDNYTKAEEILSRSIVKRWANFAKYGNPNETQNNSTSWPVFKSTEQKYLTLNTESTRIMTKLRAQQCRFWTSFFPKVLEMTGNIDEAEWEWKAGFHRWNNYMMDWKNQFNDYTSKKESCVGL
Sequence of Cholinesterases; ACHE & BCHE (Homo sapiens) (P22303 whole entry, looked up): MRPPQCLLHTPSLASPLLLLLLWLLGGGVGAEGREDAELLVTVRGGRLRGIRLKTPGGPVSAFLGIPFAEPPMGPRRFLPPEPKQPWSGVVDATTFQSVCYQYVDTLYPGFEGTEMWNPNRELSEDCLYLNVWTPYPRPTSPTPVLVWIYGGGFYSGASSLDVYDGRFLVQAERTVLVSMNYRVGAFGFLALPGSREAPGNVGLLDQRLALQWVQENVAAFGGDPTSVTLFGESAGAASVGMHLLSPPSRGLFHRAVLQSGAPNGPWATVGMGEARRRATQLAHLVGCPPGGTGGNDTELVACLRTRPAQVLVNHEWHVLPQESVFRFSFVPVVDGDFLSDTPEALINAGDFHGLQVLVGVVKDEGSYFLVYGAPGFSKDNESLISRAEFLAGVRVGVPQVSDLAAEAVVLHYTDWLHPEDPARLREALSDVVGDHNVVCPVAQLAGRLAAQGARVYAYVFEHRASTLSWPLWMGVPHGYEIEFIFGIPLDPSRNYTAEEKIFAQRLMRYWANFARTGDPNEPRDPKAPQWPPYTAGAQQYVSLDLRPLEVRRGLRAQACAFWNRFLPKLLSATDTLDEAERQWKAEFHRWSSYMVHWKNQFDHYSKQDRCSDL

Sequence of Cholinesterase (P06276 whole entry): as the sequence (P06276 whole entry, looked up) above
Sequence of Acetylcholinesterase (P22303 whole entry): as the sequence (P22303 whole entry, looked up) above
Description for Acetylcholinesterase: Inhibition of human recombinant AChE

For `CN[C@@H](Cc1c[nH]c2ccccc12)C(=O)NCC(=O)Nc1c2c(nc3ccccc13)CCCC2`, the Ki (commonly the equilibrium dissociation constant of an inhibitor or competing ligand from its target) at Acetylcholinesterase stood at 3.33 µM; on Cholinesterase, 1.76 µM.
For `N[C@@H](CCC(=O)NCCNc1c2c(nc3ccccc13)CCCC2)C(=O)NCCNc1c2c(nc3ccccc13)CCCC2` the same measures were 0.00621 µM and 0.0251 µM.
For `CC(C)(C)OC(=O)N[C@@H](CCC(=O)NCCNc1c2c(nc3ccccc13)CCCC2)C(=O)NCCNc1c2c(nc3ccccc13)CCCC2` the same measures were 0.0154 µM and 0.0126 µM.
As for `N[C@@H](Cc1c[nH]c2ccccc12)C(=O)NCCNc1c2c(nc3ccccc13)CCCC2`, in assay [1], the Ratio Ki came out at 210. The values for the Ki on Acetylcholinesterase and on Cholinesterase were 0.28 µM and 0.00133 µM, respectively.
Consider `CC(C)(C)OC(=O)N[C@@H](Cc1c[nH]c2ccccc12)C(=O)NCCNc1c2c(nc3ccccc13)CCCC2`, for which the Ki came out at 0.13 µM on Acetylcholinesterase and 0.00187 µM at Cholinesterase.
The corresponding values for `CC(C)(C)OC(=O)N[C@@H](Cc1c[nH]c2ccccc12)C(=O)NCCC(=O)Nc1c2c(nc3ccccc13)CCCC2` are 7.97 µM and 0.443 µM.
For `O=C(CNC(=O)[C@@H]1Cc2ccccc2CN1)Nc1c2c(nc3ccccc13)CCCC2` the same measures were 4.13 µM and 0.58 µM.
`N[C@@H](Cc1ccccc1)C(=O)NCC(=O)Nc1c2c(nc3ccccc13)CCCC2`: the results for the Ki at Acetylcholinesterase and on Cholinesterase were 1.91 µM and 0.708 µM, respectively.
Consider `N[C@@H](Cc1c[nH]c2ccccc12)C(=O)NCCC(=O)Nc1c2c(nc3ccccc13)CCCC2`, for which the Ratio Ki in assay [1] was 197. Moreover, the Ki at Acetylcholinesterase came to 34 µM; at Cholinesterase, 0.173 µM.
With `O=C(NCCCCCNc1c2c(nc3ccccc13)CCCC2)[C@@H]1CCCN1CCNc1c2c(nc3ccccc13)CCCC2`, the Ki at Acetylcholinesterase was determined as 0.00675 µM; at Cholinesterase, 0.00177 µM.
The corresponding values for `CN[C@@H](Cc1ccccc1)C(=O)NCC(=O)Nc1c2c(nc3ccccc13)CCCC2` are 6.32 µM and 1.2 µM.
For `N[C@@H](Cc1c[nH]c2ccccc12)C(=O)NCC(=O)Nc1c2c(nc3ccccc13)CCCC2` the same measures were 2.21 µM and 0.251 µM.
For `N[C@@H](Cc1ccc2ccccc2c1)C(=O)NCC(=O)Nc1c2c(nc3ccccc13)CCCC2` the same measures were 11.2 µM and 0.252 µM.
